Experimental data taken from patent US11912569B2, “Method for manufacturing chlorous acid water using raw material obtained by salt electrolysis” (HONBUSANKEI CO., LTD., priority 2016, dated 2024).
Where two headings read alike, the source gives them in different places.

Legend:
E. coli [1] = assay type: cell-based
Protocol: The following samples were prepared to measure the oxidation capability: sodium hypochlorite converted concentration and phenol coefficient for each of the chlorine oxides.
These samples were used to measure the oxidation capability: sodium hypochlorite converted concentration and phenol coefficient while appropriately dilution with ion exchange water.
The following sample was prepared. The oxidation capability and phenol coefficient were measured immediately after manufacture and on day 5.
They were compared based on dissolved chlorine dioxide as the control.

E. coli [2] = experiment: Phenol coefficient method; assay type: cell-based
Protocol: The following is the operation method thereof.
5% phenol solution: Phenol is dissolved with hot water of about 70° C. 25 mL is measured out and precisely diluted to 500 mL with water (40° C.). The specific gravity at 20° C. is confirmed to be within the range of 1.000±0.005.
Liquid medium (1 L volume): 18.0 g of normal broth medium is added to 1 L of water in a 1000 mL Erlenmeyer flask with a stopper. They are mixed and dissolved for about 30 minutes at normal temperature.
Liquid medium (volume of 200 mL): about 18.0 g of normal broth medium is added to 1 L of water. They were mixed and dissolved for about 30 minutes at normal temperature.
Liquid medium (test tube): about 18.0 g of normal broth medium is added to 1 L of water. […]
The inoculated test tube is placed in a vortex mixer and sealed, and incubated for 24 hours at 37° C. Test segments observed to have opacity after incubation are recorded as “+” and test segments without opacity are recorded as “−”. However, a cotton swab is immersed in the liquid medium of the test segments evaluated as “+”, and the medium is smeared onto a desoxycholate medium (flat plate) from the center to the outside so as to draw a straight line. […]
After culturing for a predetermined time, samples observed to have a typical red colony where the medium was smeared are evaluated as “+”, and samples with no observed red colony is evaluated as “−”. […]

Row | Compound | Oxidation capability: sodium hypochlorite converted concentration at each phenol coefficient (E. coli [1]; phenol coefficient 0) | Oxidation capability: sodium hypochlorite converted concentration at each phenol coefficient (E. coli [1]; phenol coefficient 1) | Oxidation capability: sodium hypochlorite converted concentration at each phenol coefficient (E. coli [1]; phenol coefficient 2) | Oxidation capability: sodium hypochlorite converted concentration at each phenol coefficient (E. coli [1]; phenol coefficient 3) | Oxidation capability: sodium hypochlorite converted concentration at each phenol coefficient (E. coli [1]; phenol coefficient 5) | Oxidation capability: sodium hypochlorite converted concentration at each phenol coefficient (E. coli [1]; phenol coefficient 10) | Oxidation capability: sodium hypochlorite converted concentration at each phenol coefficient (E. coli [1]; phenol coefficient 15) | Oxidation capability: sodium hypochlorite converted concentration at each phenol coefficient (E. coli [1]; phenol coefficient 25) | phenol coefficient (E. coli [2]; available chlorine concentration of 25% (w/v), saturation concentration) | phenol coefficient per oxidation capability (100) (E. coli [2]; phenol coefficient divided by oxidation capability and multiplied by 100, from the values of Example 1)
1 | [O][Cl+][O-] [Dissolved chlorine dioxide] | 0 | 139 | 279 | 418 | 697 | 1395 | 2092 | 3487 |  | 
2 | sodium chlorite | 0 | nonexistent | nonexistent | nonexistent | nonexistent | nonexistent | nonexistent | nonexistent | 0 | 0
